Calls of active or inactive are those of the source. No cut-off for these calls is given here.
How the values were obtained:
[1] = Half life in Sprague-Dawley rat at 30 mg/kg, po administered via gavage by LC-MS/MS analysis; assay type: ADME, organism-based; conditions: in vivo
[2] = AUC (0 to last) in Sprague-Dawley rat at 30 mg/kg, po administered via gavage by LC-MS/MS analysis; assay type: ADME, organism-based; conditions: in vivo
[3] = Lipophilicity, log D of the compound; assay type: physicochemical; conditions: octanol/water
[4] = Half life in Sprague-Dawley rat at 1 mg/kg, iv by LC-MS/MS analysis; assay type: ADME, organism-based; conditions: in vivo
[5] = Cmax in CD-1 mouse at 5 mg/kg, po via gavage by LC-MS/MS analysis; assay type: ADME, organism-based; conditions: in vivo
[6] = Clearance in CD-1 mouse at 1 mg/kg, iv by LC-MS/MS analysis; assay type: ADME, organism-based; conditions: in vivo
[7] = Drug metabolism in dog hepatocytes; assay type: ADME, cell-based, Canis lupus familiaris, Hepatocyte
Cytochrome P450 2D6 = Cytochrome P450 2D6 (Homo sapiens, UniProt P10635); experiment: Inhibition of CYP2D6 in human liver microsomes using dextromethorphan as substrate preincubated for 10 mins followed by NADPH regeneration system addition and measured after 20 mins by LC-MS/MS analysis; assay type: ADME, Microsome
Cytochrome P450 3A4 = Cytochrome P450 3A4 (Homo sapiens, UniProt P08684); experiment: Inhibition of CYP3A4 in human liver microsomes using midazolam as substrate preincubated for 10 mins followed by NADPH regeneration system addition and measured after 3 mins by LC-MS/MS analysis; assay type: ADME, Microsome
[8] = target: Voltage-gated inwardly rectifying potassium channel KCNH2 (Homo sapiens, UniProt Q12809); experiment: Inhibition of human ERG stably expressed in HEK293 cells measured at holding potential of -80 mV by manual patch clamp assay; assay type: toxicity, cell-based
[9] = Cmax in CD-1 mouse at 75 mg/kg, po via gavage by LC-MS/MS analysis; assay type: ADME, organism-based; conditions: in vivo
CT26 = experiment: Synergistic antitumor activity against mouse CT26 cells implanted in BALB/c mouse assessed as tumor growth inhibition at 50 mg/kg, po administered twice daily in presence of antimouse-PD-L1 antibody; assay type: functional; conditions: read-out: TGI
[10] = AUC (0 to last) in Beagle dog at 1 mg/kg, iv by LC-MS/MS analysis; assay type: ADME, organism-based, Canis lupus familiaris; conditions: in vivo
[11] = Mutagenicity in Salmonella typhimurium TA100 by Ames test; assay type: toxicity; conditions: salmonella enterica subsp. enterica serovar typhimurium
[12] = Mutagenicity in Salmonella typhimurium TA100 in presence of liver S9 fraction by Ames test; assay type: toxicity, subcellular; conditions: salmonella enterica subsp. enterica serovar typhimurium
[13] = Drug metabolism in dog liver microsomes; assay type: ADME, Canis lupus familiaris, Microsome
Cytochrome P450 2C19 = Cytochrome P450 2C19 (Homo sapiens, UniProt P33261); experiment: Inhibition of CYP2C19 in human liver microsomes using (S)-mephenytoin as substrate preincubated for 10 mins followed by NADPH regeneration system addition and measured after 20 mins by LC-MS/MS analysis; assay type: ADME, Microsome
[14] = Mutagenicity in Salmonella typhimurium TA98 in presence of liver S9 fraction by Ames test; assay type: toxicity, subcellular; conditions: salmonella enterica subsp. enterica serovar typhimurium
[15] = Time at which unbound plasma concentration required to show cellular IC50 for inhibition of smad phosphorylation in mouse H22 cell implanted BALB/c mouse at 15 mg/kg, po administered twice daily for 11 days; assay type: functional; conditions: time 11 day
[16] = Drug metabolism in mouse hepatocytes; assay type: ADME, cell-based, Hepatocyte
4T1-Luc = experiment: Antimetastatic activity against mouse 4T1-Luc cells implanted in BALB/c mouse assessed as reduction in metastatic rate in lung at 100 mg/kg, po administered daily for 32 days and measured on day 30 to 35 by IVIS fluorescence analysis; assay type: functional, organism-based; conditions: time 35.0 day
[17] = Drug metabolism in monkey liver microsomes; assay type: ADME, Macaca mulatta, Microsome; conditions: rhesus monkey

Sequence of Cytochrome P450 3A4 (P08684 whole entry): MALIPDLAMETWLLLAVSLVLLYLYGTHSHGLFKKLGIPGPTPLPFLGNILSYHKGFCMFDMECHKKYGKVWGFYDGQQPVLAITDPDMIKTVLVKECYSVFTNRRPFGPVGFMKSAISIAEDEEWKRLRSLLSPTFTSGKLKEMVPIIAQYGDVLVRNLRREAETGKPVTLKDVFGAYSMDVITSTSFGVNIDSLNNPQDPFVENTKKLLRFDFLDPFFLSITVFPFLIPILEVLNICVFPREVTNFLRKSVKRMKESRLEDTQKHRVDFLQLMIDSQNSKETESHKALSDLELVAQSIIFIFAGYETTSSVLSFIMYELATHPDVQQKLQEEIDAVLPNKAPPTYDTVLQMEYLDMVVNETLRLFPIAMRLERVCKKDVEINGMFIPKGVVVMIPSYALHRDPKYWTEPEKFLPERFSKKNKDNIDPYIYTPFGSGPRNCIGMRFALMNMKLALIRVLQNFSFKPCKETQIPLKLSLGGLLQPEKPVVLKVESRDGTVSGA
Sequence of Cytochrome P450 2C19 (P33261 whole entry): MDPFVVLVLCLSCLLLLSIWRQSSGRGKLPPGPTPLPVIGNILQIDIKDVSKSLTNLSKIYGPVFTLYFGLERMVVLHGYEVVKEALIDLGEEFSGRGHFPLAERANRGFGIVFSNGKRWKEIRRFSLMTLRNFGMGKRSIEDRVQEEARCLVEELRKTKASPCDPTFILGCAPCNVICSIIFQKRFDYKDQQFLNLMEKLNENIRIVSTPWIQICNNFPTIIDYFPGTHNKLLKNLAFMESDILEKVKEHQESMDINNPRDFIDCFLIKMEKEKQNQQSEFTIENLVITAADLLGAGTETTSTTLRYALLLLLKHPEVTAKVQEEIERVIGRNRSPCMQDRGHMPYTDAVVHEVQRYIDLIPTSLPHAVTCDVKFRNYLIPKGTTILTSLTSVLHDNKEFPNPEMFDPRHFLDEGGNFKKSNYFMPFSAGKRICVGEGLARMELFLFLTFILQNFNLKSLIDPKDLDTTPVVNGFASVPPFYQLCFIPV
Sequence of Voltage-gated inwardly rectifying potassium channel KCNH2 (Q12809 whole entry): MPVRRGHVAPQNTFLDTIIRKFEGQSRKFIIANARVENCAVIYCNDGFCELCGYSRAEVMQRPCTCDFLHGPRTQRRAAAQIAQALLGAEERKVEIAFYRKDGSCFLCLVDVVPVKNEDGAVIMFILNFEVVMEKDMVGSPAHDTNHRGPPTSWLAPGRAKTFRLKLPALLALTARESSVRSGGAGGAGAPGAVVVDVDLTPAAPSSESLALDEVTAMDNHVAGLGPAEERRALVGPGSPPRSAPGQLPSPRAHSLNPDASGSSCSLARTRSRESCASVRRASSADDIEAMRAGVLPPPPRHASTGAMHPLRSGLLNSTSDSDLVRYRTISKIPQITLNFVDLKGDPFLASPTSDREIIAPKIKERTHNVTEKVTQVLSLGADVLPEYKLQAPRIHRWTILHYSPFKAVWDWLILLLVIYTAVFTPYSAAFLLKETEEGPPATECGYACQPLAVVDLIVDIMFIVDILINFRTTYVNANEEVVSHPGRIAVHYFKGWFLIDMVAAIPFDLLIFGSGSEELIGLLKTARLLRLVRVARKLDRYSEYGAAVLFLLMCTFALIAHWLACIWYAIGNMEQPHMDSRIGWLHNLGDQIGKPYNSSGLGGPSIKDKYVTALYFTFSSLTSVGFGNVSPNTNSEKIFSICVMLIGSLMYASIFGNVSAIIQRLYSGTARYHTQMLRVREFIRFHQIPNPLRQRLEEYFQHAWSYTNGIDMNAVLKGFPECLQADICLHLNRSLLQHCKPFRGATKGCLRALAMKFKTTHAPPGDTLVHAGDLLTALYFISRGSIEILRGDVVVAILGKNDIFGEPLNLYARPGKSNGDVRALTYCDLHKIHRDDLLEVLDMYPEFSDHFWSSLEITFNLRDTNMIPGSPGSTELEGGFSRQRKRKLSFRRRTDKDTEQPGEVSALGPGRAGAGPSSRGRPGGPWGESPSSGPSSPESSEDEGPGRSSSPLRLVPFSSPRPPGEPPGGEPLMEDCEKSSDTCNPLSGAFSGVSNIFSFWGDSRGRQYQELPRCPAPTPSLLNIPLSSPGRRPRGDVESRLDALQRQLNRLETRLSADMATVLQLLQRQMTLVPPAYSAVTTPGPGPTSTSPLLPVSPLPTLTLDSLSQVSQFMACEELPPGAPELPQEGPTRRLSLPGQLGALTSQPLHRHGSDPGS
Sequence of Cytochrome P450 2D6 (P10635 whole entry): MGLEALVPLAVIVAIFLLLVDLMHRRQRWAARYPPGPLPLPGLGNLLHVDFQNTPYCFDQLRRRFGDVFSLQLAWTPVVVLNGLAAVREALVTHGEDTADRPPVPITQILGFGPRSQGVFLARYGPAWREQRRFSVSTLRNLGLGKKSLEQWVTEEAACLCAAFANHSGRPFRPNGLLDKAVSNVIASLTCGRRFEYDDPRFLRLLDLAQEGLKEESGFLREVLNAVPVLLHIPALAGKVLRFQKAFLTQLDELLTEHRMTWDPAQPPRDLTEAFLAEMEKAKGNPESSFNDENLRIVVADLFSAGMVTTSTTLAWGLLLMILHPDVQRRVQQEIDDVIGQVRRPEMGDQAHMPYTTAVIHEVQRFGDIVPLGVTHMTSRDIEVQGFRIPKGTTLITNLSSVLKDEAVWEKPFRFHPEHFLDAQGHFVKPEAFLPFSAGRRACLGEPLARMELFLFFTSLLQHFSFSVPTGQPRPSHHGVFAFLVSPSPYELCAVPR

Structure (SMILES): Cc1cccc(-c2nn3c(c2-c2ccc4ncnn4c2/C=C/C(N)=O)CCC3)n1
- half-life [1]: 121 min
- AUClast [2]: 9614 nM.hr/ml
- logD [3]: 1.36
- half-life [4]: 52.2 min
- Cmax [5]: 355 nM/ml
- clearance [6]: 63.3 mL/min/kg
- Drug metabolism [7]: metabolite_detected
- IC50 (Cytochrome P450 2D6): > 100 µM
- IC50 (Cytochrome P450 3A4): > 100 µM
- IC50 [8]: > 30 µM
- Cmax [9]: 24233 nM/ml
- inhibition in vivo at 50 mg/kg (CT26): 79.4%
- AUClast [10]: 5626 nM.hr/ml
- Activity [11]: Non-toxic
- Activity [12]: Non-toxic
- Drug metabolism [13]: metabolite_detected
- IC50 (Cytochrome P450 2C19): > 100 µM
- Activity [14]: Non-toxic
- T>IC50 [15]: ~3.5 h
- Drug metabolism [16]: metabolite_detected
- Activity (4T1-Luc): Active
- Drug metabolism [17]: metabolite_detected

Source: ChEMBL document CHEMBL6182942, “Discovery of a Selective, Novel TGF-βR1 Inhibitor GFH018 for the Treatment of Solid Tumors” (J Med Chem, 2025)
